Assay results as given in patent US3992540A, “3-Quinoline-substituted 4-oxy-carboxamides” (Roussel-UCLAF, priority 1974, dated 1976).

Experiments:
[1] = test system: stretchings provoked by intraperitoneal injection of acetic acid to mice; assay: Analgesic activity, acetic acid stretching (writhing) test in mice (Koster et al); format: in vivo; conditions: Mus musculus, oral, 30 minutes before acetic acid injection (100 mg/kg i.p.), stretchings totaled over 15 minutes, read-out: DA50, dose which reduced by 50% the number of stretchings as compared to the controls
Experimental: The test was based on that of Koster et al [Fed. Proc., Vol. 18 (1959), p. 412] in which the intraperitoneal injection of acetic acid to mice provokes repeated stretching and twisting movements which persist for more than 6 hours. Analgesics prevent or suspress these syndromes which are considered to be an exteriorization of a diffuse abdominal pain. A 1% solution of acetic acid in water was used at a dose of 0.01 ml/g or 100 mg/kg of acetic acid to release the syndrome.
The test product was orally administered 30 minutes before the acetic acid injection and the mice were fasted for 24 hours before the start of the test. The stretchings for the mice were observed and totaled for each mouse in a 15 minutes observation period starting just after the acetic acid injection. The results were expressed as DA50, that dose which reduced by 50% the number of stretchings as compared to the controls and the DA50 for N-[2-thiazolyl]-4-hydroxy-8 -trifluoromethyl-3-quinoline-carboxamide was 5 mg/kg; for N-[2 -thiazolyl]-4-hydroxy-8-chloro-3-quinoline-carboxamide was 4 mg/kg; and for N-[2-thiazolyl]-4-hydroxy-7-trifluoromethyl- 3-quinoline-carboxamide was 7 mg/kg.

[2] = Acute toxicity in mice, intraperitoneal; conditions: mouse, in vivo, ip, observed for a week, graphically determined by Miller et al method, read-out: DL50
Experimental: The acute toxicity was determined on groups of 10 mice weighing between 18-22 g and the test product was administered intraperitoneally in increasing dose in suspensions at 0.25 % in carboxymethyl-cellulose added of Tween 80.

mice = conditions: mouse, in vivo, po, 500 mg/kg

Row | Structure (SMILES) | ED50 [1] | LD50 at 168 h [2] | tolerance when orally administered (mice)
1 | O=C(Nc1nccs1)c1cnc2cc(C(F)(F)F)ccc2c1O [N-[2-thiazolyl]-4-hydroxy-7-trifluoromethyl-3-quinoline-carboxamide] | 7 mg/kg | – | –
2 | O=C(Nc1nccs1)c1cnc2c(Cl)cccc2c1O [N-[2-thiazolyl]-4-hydroxy-8-chloro-3-quinoline-carboxamide] | 4 mg/kg | – | –
3 | O=C(Nc1nccs1)c1cnc2c(C(F)(F)F)cccc2c1O [N-[2-thiazolyl]-4-hydroxy-8-trifluoromethyl-3-quinoline-carboxamide] | 5 mg/kg | 225 mg/kg | very well tolerated
